Source: patent US20210008161A1, “METHODS AND COMPOSITIONS FOR IMPROVED HOMOLOGY DIRECTED REPAIR” (CRISPR THERAPEUTICS AG, priority 2019, published 2021)

Key:
Assay type in all cases: cell-based, human
HEK293 T cells [1] = assay: Indel formation at GFP gene in AAVS1 locus by TIDE analysis; conditions: regardless of ssODN or gRNA, compared to DMSO control, FIG. 2C-2D
Experimental: The effect of DNA PK inhibition by Nu7441 correction of a DSB by the NHEJ pathway (e.g., introduce an indel at the DSB site) or HDR pathway (e.g., introduce a gene mutation encoded by a homology donor at the DSB site) was assessed using the reporter system described in Example 1. In this case gene-editing was evaluated in HEK293 T cells expressing GFP in the AAVS1 locus. To introduce a gene edit that converts GFP to BFP, cells were electroporated with ribonucleoprotein (RNP) comprised of Cas9 and gRNA1 (GFP target sequence identified by SEQ ID NO: 9; sgRNA spacer sequence identified by SEQ ID NO: 10) or gRNA2 (GFP target sequence identified by SEQ ID NO: 11; sgRNA spacer identified by SEQ ID NO: 12) that targets the GFP gene encoded in the AAVS1 locus. The cells were also transfected with ssODNs that encoded the gene correction necessary to convert GFP to BFP and homology arms complimentary to the sequence upstream and downstream of the target gene cut site. The efficiency of HDR repair was determined by measuring the level of cell BFP fluorescence. The efficiency of cutting (indel information) was monitored by TIDE analysis.
Shown in FIGS. 2C-2D is a measure of indel formation performed by TIDE analysis for the same edits that are described for FIGS. 2A-2B. […] Thus, the DNA PK inhibitor Nu7441 achieves reduced repair of a DSB by the NHEJ pathway when a homology donor is provided.

HEK293 T cells [2] = assay: BFP to GFP fluorescent reporter assay of HDR efficiency (AAVS1 locus)
Experimental: An in vitro assay was conducted to determine the ability of various inhibitors and enhancers to improve the efficiency of HDR repair in HEK293 T cells. Specifically, a fluorescent reporter-based screening approach was developed to identify molecules that enhance gene-editing by HDR. A reporter system was generated in HEK293 T cells comprising a genomic AAVS1 locus that encoded either a blue fluorescent protein (BFP) or a green fluorescent protein (GFP) within the AAVS1 locus. A gene encoding BFP can be converted to a gene encoding GFP by substitution of cytosine at position 199 to uridine (e.g., a C to U transition at position 199). By introducing a DSB within the BFP gene using a CRISPR/Cas9 gene-editing system, a homology donor DNA encoding the nucleotide substitution can be used to edit the BFP gene to a GFP gene by HDR repair. Thus, a gene edit that induces a C to U transition at position 199 results in a change in cellular fluorescence. A change in the fluorescence of the cell measured by flow cytometry can be used to quantify efficiency of HDR repair. Additionally, the reverse gene edit can be performed for an AAVS1 locus encoding a GFP gene, wherein a GFP can be converted to BFP by substitution of uridine at position 199 to cytosine.
To create the reporter system, an AAV-based homology donor DNA encoding either BFP or GFP was created. The AAV-BFP or AAV-GFP donor was flanked by homology arms that were 1000 base pairs in length and expression of BFP or GFP was driven by the MND promoter (e.g., a synthetic promoter that contains the U3 region of a modified Moloney murine leukemia virus long term terminal repeat with myeloproliferative sarcoma virus enhancer and deleted negative control region, SEQ ID NO: 58). The viral DNA was packaged into capsids of adeno-associated virus serotype 6 (AAV6) vector. Either the BFP or GFP donor was introduced using the AAV6 vector into the AAVS1 locus in HEK293 T cells by homologous recombination using CRISPR-Cas9 as follows: purified Cas9 protein was complexed with two different single gRNAs (sgRNAs) targeting the AAVS1 locus at SEQ ID NO: 3 (spacer sequence identified by SEQ ID NO: 4; gRNA obtained from Maxcyte) or SEQ ID NO: 5 (spacer sequence identified by SEQ ID NO: 6; gRNA obtained from Thermo Fisher). Cas9 protein used in the Exemplary section provided herein refers to Cas9 polypeptide derived from S. pyogenes (SpCas9), unless indicated otherwise.
The Cas9-sgRNA complex was electroporated into the HEK293 T cells using the Lonza Nucleofector program CM-130. Approximately, 2 hours after electroporation, the cells were infected with various viral doses of AAV6 encoding a BFP (SEQ ID NO: 44) or GFP homology donor (SEQ ID NO: 47). One week later, cells were analyzed by flow cytometry to verify integration and expression of BFP or GFP in the AAVS1 locus. HEK293 T cells expressing BFP or GFP were sorted into single cells in 96-well plates. After ˜2 weeks of growth, DNA extracted from individual cells was analyzed for precise integration of the respective BFP or GFP gene into the AAVS1 locus by long-range PCR. This PCR analysis allowed for determination of whether the BFP/GFP gene was integrated in one or both alleles of the AAVS1 locus.
To introduce a gene edit that converts BFP to GFP, cells were electroporated with ribonucleoprotein (RNP) comprised of Cas9 and sgRNA that targets the BFP gene encoded in the AAVS1 locus. The sgRNA targeted a sequence in the BFP gene identified by SEQ ID NO: 7 (sgRNA spacer sequence identified by SEQ ID NO: 8). The sgRNA were prepared using a standard sgRNA cassette specific to SpCas9, as indicated by SEQ ID NO: 2 (wherein a, c, g, u represent 2′ O-methyl phosphorothioate nucleotides; s represents phosphorothioate nucleotides; and A, C, G, U, N represent canonical RNA nucleotides). The gRNAs used in the Exemplary section provided herein were sgRNAs prepared with the SpCas9 sgRNA cassette unless indicated otherwise. […]

HEK293 T cells [3] = assay: HDR gene-editing at GSD1a locus with ssODN homology donors; conditions: for HDR efficiency: 1.25 μM SCR7 or 10 μM RS-1, FIG. 3
Experimental: 2×10^5 cells were edited with 1 μM Cas9 and 1.5 μM gRNA. The cells were transfected with two different ssODNs homology donors: 93-50 (SEQ ID NO: 39) or 25-100 (SEQ ID NO: 40). These two ssODN donors contain homology arms spanning both sides of the double-stranded break induced by the Cas9-guide and facilitate correction of a point mutation in the G6PC gene sequence by HDR. Cells were edited with 100 μM ssODN. The cells were treated with 2.5 μM Nu7441, 1.25 μM SCR7, or 10 μM RS-1 and the effect on HDR efficiency was evaluated.

[4] = 1.25 μM SCR7 or 10 μM RS-1, ssODN1-4, relative to DMSO alone, FIG. 1A

Molecule	indel formation at the DSB site (HEK293 T cells [1])	fold higher HDR efficiency (HEK293 T cells [2]; 2.5 μM Nu7441, each of ssODN1-4, FIG. 1A)	fold higher HDR efficiency, high vs low concentration (HEK293 T cells [2]; 2.5 μM vs 0.6 μM, FIG. 1B, 1C)	HDR efficiency at higher concentrations (HEK293 T cells [2]; concentrations higher than 2.5 μM)	improvement in HDR efficiency, dose dependence (HEK293 T cells [2]; varied doses, FIG. 1B)	fold increase in HDR efficiency (HEK293 T cells [3]; 2.5 μM Nu7441, over DMSO alone, FIG. 3)	HDR efficiency (HEK293 T cells [2]; [4])	HDR efficiency (HEK293 T cells [3])	HDR efficiency (HEK293 T cells [2]; different doses of mRNA encoding i53, ssODN Hn-91-61 and Ht-39-88, FIG. 1D)
O=c1cc(N2CCOCC2)oc2c(-c3cccc4c3sc3ccccc34)cccc12 [Nu7441]	decreased	approximately 3 fold	approximately 1.5 fold	no further improvement	dose-dependent	approximately 1.7 fold			
O=C(Nc1ccc(Br)cc1)c1ccc(Br)c(S(=O)(=O)NCc2ccccc2)c1 [RS-1]	reduction						no improvement	no effect	
O=c1[nH]c(=S)[nH]c(N=Cc2ccccc2)c1N=Cc1ccccc1 [SCR7]	reduction						no improvement	no effect	
i53: polypeptide inhibitor of 53BP1 (SEQ ID NO: 70), introduced as an mRNA-encoded protein (ORF SEQ ID NO: 69)									increased
